Assay results published in patent publication US20230293526A1, “METHOD FOR TREATING CANCER WITH A REVERSE TRANSCRIPTASE INHIBITOR” (PrimeFour Therapeutics, Inc., priority 2020, published 2023).

Legend:
human LINE-1 = assay: Human LINE-1 (L1) retrotransposition dual-luciferase reporter assay in HeLa cells; type: cell-based; settings: Homo sapiens, HeLa, 72 h, read-out: Human LINE-1 IC50 (Human L1 activity inhibition)
Summary of the method: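 HeLa cells transfected with dual-luciferase L1 plasmid pYX017 (100 ng/well), dosed immediately after with serially diluted compounds (0.2% DMSO final) in triplicate and incubated 72 h at 37 °C. Relative L1 activity = Firefly/Renilla ×10,000; IC50 from logistic non-linear regression.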

cancer cell lines = assay: Cancer cell proliferation activity of representative nucleosides, CellTiterGlo 72 h (Example 7, Tables 8 and 9); type: cell-based; settings: 72 h
Summary of the method: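 Cancer cell lines seeded and incubated at 37° C overnight, then exposed to nucleosides (final DMSO 0.1%) for 72 h at 37° C with 5% or 10% CO2. Viability read by CellTiterGlo luminescence and normalized to 0.1% DMSO (100%) and 10 μM staurosporine (0%) controls.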

C#C[C@]1(CO)O[C@@H](n2cc(F)c(N)nc2=O)C[C@@H]1O [compound 9]
IC50 (human LINE-1): 0.021 µM
IC50 (cancer cell lines; 72 h, 5637, bladder): 0.81 µM
IC50 (cancer cell lines; CLS439, bladder): > 50 µM
IC50 (cancer cell lines; HS729, muscle): > 50 µM
IC50 (cancer cell lines; J82, bladder): 1.16 µM
IC50 (cancer cell lines; JAR, placenta): 7.25 µM
IC50 (cancer cell lines; MT3, breast): 1.46 µM
IC50 (cancer cell lines; PC3, prostate): 6.33 µM
IC50 (cancer cell lines; RD, muscle): 4.22 µM
IC50 (cancer cell lines; T24, bladder): 3.76 µM
IC50 (cancer cell lines; Homo sapiens, 22Rv1, 72 h, 22RV1, prostate): 0.55 µM
IC50 (cancer cell lines; Homo sapiens, 786-0, 72 h, 786O, kidney): 3.54 µM
IC50 (cancer cell lines; Homo sapiens, A204, 72 h, A204, muscle): 9.82 µM
IC50 (cancer cell lines; Homo sapiens, A549, 72 h, A549, lung): 1.24 µM
IC50 (cancer cell lines; Homo sapiens, A673, 72 h, A673, bone): 1.96 µM
IC50 (cancer cell lines; Homo sapiens, A2780, 72 h, A2780, ovary): 4.18 µM
IC50 (cancer cell lines; Homo sapiens, A-375, 72 h, A375, skin): > 50 µM
IC50 (cancer cell lines; Homo sapiens, A-431, 72 h, A431, skin): 0.11 µM
IC50 (cancer cell lines; Homo sapiens, ACHN, kidney): 1.05 µM
IC50 (cancer cell lines; Homo sapiens, ASPC1, 72 h, ASPC1, pancreas): 2.58 µM
IC50 (cancer cell lines; Homo sapiens, BT-20, 72 h, BT20, breast): > 50 µM
IC50 (cancer cell lines; Homo sapiens, BXPC-3, 72 h, BXPC3, pancreas): 0.23 µM
IC50 (cancer cell lines; Homo sapiens, C-33-A, C33A, endometrial): 4.56 µM
IC50 (cancer cell lines; Homo sapiens, CAKI-1, 72 h, CAKI1, kidney): > 50 µM
IC50 (cancer cell lines; Homo sapiens, COLO 205, 72 h, COLO205, colon): 0.91 µM
IC50 (cancer cell lines; Homo sapiens, COLO-678, 72 h, COLO678, colon): > 50 µM
IC50 (cancer cell lines; Homo sapiens, Ca-Ski, CASKI, endometrial): 11.6 µM
IC50 (cancer cell lines; Homo sapiens, Caco-2, 72 h, CACO2, colon): > 50 µM
IC50 (cancer cell lines; Homo sapiens, Calu-6, 72 h, CALU6, lung): > 50 µM
IC50 (cancer cell lines; Homo sapiens, DLD-1, 72 h, DLD1, colon): 4.35 µM
IC50 (cancer cell lines; Homo sapiens, DU-145, 72 h, DU145, prostate): 2.42 µM
IC50 (cancer cell lines; Homo sapiens, EFO-21, 72 h, EFO21, ovary): 2.41 µM
IC50 (cancer cell lines; Homo sapiens, EJ-28, 72 h, EJ28, bladder): 2.21 µM
IC50 (cancer cell lines; Homo sapiens, Granta-519, 72 h, GRANTA-519, hematological): 3.24 µM
IC50 (cancer cell lines; Homo sapiens, HCT-15, 72 h, HCT15, colon): 4.08 µM
IC50 (cancer cell lines; Homo sapiens, HCT-116, 72 h, HCT116, colon): > 50 µM
IC50 (cancer cell lines; Homo sapiens, HEK293, 72 h, HEK293, kidney): 7.63 µM
IC50 (cancer cell lines; Homo sapiens, HL-60, 72 h, HL-60, hematological): 4.04 µM
IC50 (cancer cell lines; Homo sapiens, HT-29, 72 h, HT29, colon): 1.47 µM
IC50 (cancer cell lines; Homo sapiens, HT-1080, 72 h, HT1080, connective tissue): 2.88 µM
IC50 (cancer cell lines; Homo sapiens, HeLa, endometrial): > 50 µM
IC50 (cancer cell lines; Homo sapiens, HepG2, 72 h, HEPG2, liver): 1.6 µM
IC50 (cancer cell lines; Homo sapiens, Hs-578T, HS578T, breast): > 50 µM
IC50 (cancer cell lines; Homo sapiens, IGROV-1, 72 h, IGROV1, ovary): 5.01 µM
IC50 (cancer cell lines; Homo sapiens, IMR-90, 72 h, IMR90, lung): > 50 µM
IC50 (cancer cell lines; Homo sapiens, JEG-3, 72 h, JEG3, placenta): 0.99 µM
IC50 (cancer cell lines; Homo sapiens, JIMT-1, 72 h, JIMT1, breast): 4.47 µM
IC50 (cancer cell lines; Homo sapiens, K562, 72 h, K-562, hematological): 4.38 µM
IC50 (cancer cell lines; Homo sapiens, Kasumi 1, 72 h, KASUMI-1, hematological): > 50 µM
IC50 (cancer cell lines; Homo sapiens, L-363, 72 h, L-363, hematological): 1.96 µM
IC50 (cancer cell lines; Homo sapiens, LoVo, colon): 1.62 µM
IC50 (cancer cell lines; Homo sapiens, MCF7, 72 h, MCF7, breast): 1.19 µM
IC50 (cancer cell lines; Homo sapiens, MDA-MB-231, 72 h, MDAMB231, breast): > 50 µM
IC50 (cancer cell lines; Homo sapiens, MDA-MB-435, 72 h, MDAMB435, skin): 4.39 µM
IC50 (cancer cell lines; Homo sapiens, MDA-MB-436, 72 h, MDAMB436, breast): 1.37 µM
IC50 (cancer cell lines; Homo sapiens, MDA-MB-468, 72 h, MDAMB468, breast): > 50 µM
IC50 (cancer cell lines; Homo sapiens, MG-63, 72 h, MG63, bone): 2.44 µM
IC50 (cancer cell lines; Homo sapiens, MHH-ES-1, 72 h, MHHES1, bone): 1.53 µM
IC50 (cancer cell lines; Homo sapiens, MIA PaCa-2, 72 h, MIAPACA2, pancreas): 3.75 µM
IC50 (cancer cell lines; Homo sapiens, MINO, hematological): 3.74 µM
IC50 (cancer cell lines; Homo sapiens, MV4-11, 72 h, MV4-11, hematological): 0.39 µM
IC50 (cancer cell lines; Homo sapiens, NCI-H23, 72 h, NCI-H23, lung): 2.42 µM
IC50 (cancer cell lines; Homo sapiens, NCI-H82, 72 h, NCIH82, lung): 2.35 µM
IC50 (cancer cell lines; Homo sapiens, NCI-H292, 72 h, NCIH292, lung): > 50 µM
IC50 (cancer cell lines; Homo sapiens, NCI-H460, 72 h, NCIH460, ung): 1.06 µM
IC50 (cancer cell lines; Homo sapiens, OVCAR-3, 72 h, OVCAR3, ovary): 5.6 µM
IC50 (cancer cell lines; Homo sapiens, OVCAR-4, 72 h, OVCAR4, ovary): > 50 µM
IC50 (cancer cell lines; Homo sapiens, PANC-1, 72 h, PANC1, pancreas): 6.4 µM
IC50 (cancer cell lines; Homo sapiens, PLC-PRF-5, 72 h, PLCPRF5, liver): 3.24 µM
IC50 (cancer cell lines; Homo sapiens, Panc1005, 72 h, PANC1005, pancreas): 16.4 µM
IC50 (cancer cell lines; Homo sapiens, Ramos, hematological): 5.3 µM
IC50 (cancer cell lines; Homo sapiens, SAOS-2, 72 h, SAOS2, bone): 4.72 µM
IC50 (cancer cell lines; Homo sapiens, SF-268, 72 h, SF268, brain): 1.65 µM
IC50 (cancer cell lines; Homo sapiens, SF-295, 72 h, SF295, brain): 4.49 µM
IC50 (cancer cell lines; Homo sapiens, SK-BR-3, 72 h, SKBR3, breast): 0.12 µM
IC50 (cancer cell lines; Homo sapiens, SK-HEP1, 72 h, SKHEP1, liver): 1.29 µM
IC50 (cancer cell lines; Homo sapiens, SK-LMS-1, 72 h, SKLMS1, uterus): 5.61 µM
IC50 (cancer cell lines; Homo sapiens, SK-MEL-5, 72 h, SKMEL5, skin): 5.52 µM
IC50 (cancer cell lines; Homo sapiens, SK-MEL-28, 72 h, SKMEL28, skin): > 50 µM
IC50 (cancer cell lines; Homo sapiens, SK-N-AS, SKNAS, brain): > 50 µM
IC50 (cancer cell lines; Homo sapiens, SK-N-SH, SKNSH, brain): 2.44 µM
IC50 (cancer cell lines; Homo sapiens, SK-OV-3, 72 h, SKOV3, ovary): 1.64 µM
IC50 (cancer cell lines; Homo sapiens, SNB-75, 72 h, SNB75, brain): > 50 µM
IC50 (cancer cell lines; Homo sapiens, SU-DHL10, 72 h, SU-DHL-10, hematological): 3.15 µM
IC50 (cancer cell lines; Homo sapiens, SU-DHL-6, 72 h, SU-DHL-6, hematological): 4.69 µM
IC50 (cancer cell lines; Homo sapiens, SW-620, 72 h, SW620, colon): 0.91 µM
IC50 (cancer cell lines; Homo sapiens, TE-671, 72 h, TE671, muscle): 5.9 µM
IC50 (cancer cell lines; Homo sapiens, THP-1, 72 h, THP-1, hematological): 1.12 µM
IC50 (cancer cell lines; Homo sapiens, U2OS, bone): > 50 µM
IC50 (cancer cell lines; Homo sapiens, U-87 MG, U87MG, brain): 11.9 µM
IC50 (cancer cell lines; Homo sapiens, UMUC3, 72 h, UMUC3, bladder): 3.39 µM
IC50 (cancer cell lines; Homo sapiens, UO-31, 72 h, UO31, kidney): > 50 µM
IC50 (cancer cell lines; Homo sapiens, WSU-NHL, hematological): 3.53 µM
IC50 (cancer cell lines; NCI-H358M, NCIH358M, lung): > 50 µM
IC50 (cancer cell lines; PBMC, hematological): > 50 µM
IC50 (cancer cell lines; RD-ES, RDES, bone): 3.93 µM
